Source: ChEMBL document CHEMBL1135136, “Carbonic anhydrase inhibitors. Preparation of potent sulfonamides inhibitors incorporating bile acid tails” (Bioorg Med Chem Lett, 2002)
pKi: −log10 of the molar value. Several values for one entry are separate records, joined by “and”; a condition that tells them apart may be missing. Equal values may be shown once.

Key:
Carbonic anhydrase 2 = Carbonic anhydrase 2 (Homo sapiens, UniProt P00918)
Description: Inhibitory activity against human recombinant carbonic anhydrase II (CA2)

Carbonic anhydrase 4 = biological target: T1, Carbonic anhydrase 4 (Bos taurus, UniProt Q95323)
T1 sequence (Q95323 whole entry): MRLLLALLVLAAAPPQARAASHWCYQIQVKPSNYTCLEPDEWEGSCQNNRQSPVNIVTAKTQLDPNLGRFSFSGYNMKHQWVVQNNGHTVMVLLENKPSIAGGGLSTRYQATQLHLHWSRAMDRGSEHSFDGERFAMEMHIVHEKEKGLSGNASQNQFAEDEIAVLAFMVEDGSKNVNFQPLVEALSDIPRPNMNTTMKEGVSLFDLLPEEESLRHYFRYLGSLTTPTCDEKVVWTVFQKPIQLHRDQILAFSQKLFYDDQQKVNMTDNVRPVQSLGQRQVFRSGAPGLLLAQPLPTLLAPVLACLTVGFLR
Description: Inhibitory activity against bovine carbonic anhydrase IV (CA4), obtained from bovine lung microsomes

Carbonic anhydrase 1 = Carbonic anhydrase 1 (Homo sapiens, UniProt P00915)
Description: Inhibitory activity against human recombinant carbonic anhydrase I (CA1)

Oryctolagus cuniculus [1] = organism: Oryctolagus cuniculus
Description: (§1) Tested for level of sulfonamide in red blood cells of albino rabbits at 120 min post-administration of 50 mg/kg sulfonamides

Oryctolagus cuniculus [2] = organism: Oryctolagus cuniculus; remark: listed apart in the source
Description: as §1

Oryctolagus cuniculus [3] = organism: Oryctolagus cuniculus; remark: listed apart in the source
Description: Tested for level of sulfonamide in red blood cells of albino rabbits at 60 min post-administration of 50 mg/kg sulfonamides

Sequence of Carbonic anhydrase 1 (P00915 whole entry): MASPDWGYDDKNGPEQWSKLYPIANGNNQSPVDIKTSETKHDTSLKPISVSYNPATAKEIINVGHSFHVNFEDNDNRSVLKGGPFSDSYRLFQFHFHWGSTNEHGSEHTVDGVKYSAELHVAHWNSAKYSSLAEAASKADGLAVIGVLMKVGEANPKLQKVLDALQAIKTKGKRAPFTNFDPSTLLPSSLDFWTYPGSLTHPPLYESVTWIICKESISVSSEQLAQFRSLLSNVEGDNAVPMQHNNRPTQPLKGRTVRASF

Compound | pKi (Carbonic anhydrase 2) | pKi (Carbonic anhydrase 4) | pKi (Carbonic anhydrase 1) | Level (Oryctolagus cuniculus [1]) | Level (Oryctolagus cuniculus [2]) | Level (Oryctolagus cuniculus [3])
C[C@H](CCC(=O)Oc1ccc2nc(S(N)(=O)=O)sc2c1)[C@H]1CC[C@H]2[C@@H]3C(=O)C[C@@H]4CC(=O)CC[C@]4(C)[C@H]3CC(=O)[C@]12C | 9.22 | 8.30 | 7.48 | 158 µM | 163 µM | 156 µM and 159 µM
C[C@H](CCC(=O)Nc1nnc(S(N)(=O)=O)s1)[C@H]1CC[C@H]2[C@@H]3C(=O)C[C@@H]4CC(=O)CC[C@]4(C)[C@H]3CC(=O)[C@]12C | 9.30 | 8.05 | 7.39 | 151 µM | 159 µM | 155 µM and 162 µM
C[C@H](CCC(=O)Nc1ccc(S(N)(=O)=O)cc1Cl)[C@H]1CC[C@H]2[C@@H]3C(=O)C[C@@H]4CC(=O)CC[C@]4(C)[C@H]3CC(=O)[C@]12C | 7.89 | 7.52 | 6.70 |  |  | 
C[C@H](CCC(=O)Oc1ccc2nc(S(N)(=O)=O)sc2c1)[C@H]1CC[C@H]2[C@@H]3[C@H](O)C[C@@H]4C[C@H](O)CC[C@]4(C)[C@H]3C[C@H](O)[C@]12C | 8.40 | 8.05 | 7.49 |  |  | 
C[C@H](CCC(=O)Nc1ccc(S(N)(=O)=O)cc1Br)[C@H]1CC[C@H]2[C@@H]3C(=O)C[C@@H]4CC(=O)CC[C@]4(C)[C@H]3CC(=O)[C@]12C | 8.05 | 7.55 | 7.18 |  |  | 
C[C@H](CCC(=O)NCCC(=O)Nc1nnc(S(N)(=O)=O)s1)[C@H]1CC[C@H]2[C@@H]3CC[C@@H]4C[C@H](O)CC[C@]4(C)[C@H]3C[C@H](O)[C@]12C | 8.68 | 7.52 | 6.70 |  |  | 
C[C@H](CCC(=O)/N=c1\sc(S(N)(=O)=O)nn1C)[C@H]1CC[C@H]2[C@@H]3CC[C@@H]4C[C@H](O)CC[C@]4(C)[C@H]3CC[C@]12C | 8.10 | 7.68 | 6.69 |  |  | 
C[C@H](CCC(=O)/N=c1/sc(S(N)(=O)=O)nn1C)[C@H]1CC[C@H]2[C@@H]3[C@H](O)C[C@@H]4C[C@H](O)CC[C@]4(C)[C@H]3C[C@H](O)[C@]12C | 7.92 | 6.94 | 6.15 |  |  | 
C[C@H](CCC(=O)/N=c1\sc(S(N)(=O)=O)nn1C)[C@H]1CC[C@H]2[C@@H]3C(=O)C[C@@H]4CC(=O)CC[C@]4(C)[C@H]3CC(=O)[C@]12C | 9.00 | 8.10 | 7.54 |  |  | 
C[C@H](CCC(=O)NCCC(=O)Nc1nnc(S(N)(=O)=O)s1)[C@H]1CC[C@H]2[C@@H]3CC[C@@H]4C[C@H](O)CC[C@]4(C)[C@H]3CC[C@]12C | 8.68 | 7.72 | 6.70 |  |  | 
C[C@H](CCC(=O)Nc1cc(Cl)c(S(N)(=O)=O)cc1S(N)(=O)=O)[C@H]1CC[C@H]2[C@@H]3CC[C@@H]4C[C@H](O)CC[C@]4(C)[C@H]3C[C@H](O)[C@]12C | 7.26 | 6.92 | 6.65 |  |  | 

The next lines start with results.

pKi (Carbonic anhydrase 2) | pKi (Carbonic anhydrase 4) | pKi (Carbonic anhydrase 1) | Compound | Level (Oryctolagus cuniculus [1]) | Level (Oryctolagus cuniculus [2]) | Level (Oryctolagus cuniculus [3])
6.74 | 6.30 | 5.08 | C[C@H](CCC(=O)Nc1ccccc1S(N)(=O)=O)[C@H]1CC[C@H]2[C@@H]3[C@@H](O)C[C@@H]4C[C@H](O)CC[C@]4(C)[C@H]3CC[C@]12C |  |  | 
8.89 | 7.96 | 7.01 | C[C@H](CCC(=O)NCCC(=O)Nc1nnc(S(N)(=O)=O)s1)[C@H]1CC[C@H]2[C@@H]3[C@@H](O)C[C@@H]4C[C@H](O)CC[C@]4(C)[C@H]3CC[C@]12C |  |  | 
7.30 | 6.88 | 5.89 | C[C@H](CCC(=O)Nc1ccc(S(N)(=O)=O)cc1F)[C@H]1CC[C@H]2[C@@H]3[C@H](O)C[C@@H]4C[C@H](O)CC[C@]4(C)[C@H]3C[C@H](O)[C@]12C |  |  | 
6.55 | 6.01 | 4.70 | C[C@H](CCC(=O)Nc1ccccc1S(N)(=O)=O)[C@H]1CC[C@H]2[C@@H]3CC[C@@H]4C[C@H](O)CC[C@]4(C)[C@H]3C[C@H](O)[C@]12C |  |  | 
8.00 | 7.64 | 7.04 | C[C@H](CCC(=O)Nc1ccc(S(N)(=O)=O)cc1Br)[C@H]1CC[C@H]2[C@@H]3[C@@H](O)C[C@@H]4C[C@H](O)CC[C@]4(C)[C@H]3CC[C@]12C |  |  | 
6.92 | 6.60 | 5.42 | C[C@H](CCC(=O)NCc1ccc(S(N)(=O)=O)cc1)[C@H]1CC[C@H]2[C@@H]3[C@H](O)C[C@@H]4C[C@H](O)CC[C@]4(C)[C@H]3C[C@H](O)[C@]12C |  |  | 
8.28 | 8.05 | 7.36 | C[C@H](CCC(=O)OCCOc1ccc2nc(S(N)(=O)=O)sc2c1)[C@H]1CC[C@H]2[C@@H]3[C@H](O)C[C@@H]4C[C@H](O)CC[C@]4(C)[C@H]3CC[C@]12C |  |  | 
8.19 | 7.92 | 7.25 | C[C@H](CCC(=O)Nc1ccc2nc(S(N)(=O)=O)sc2c1)[C@H]1CC[C@H]2[C@@H]3CC[C@@H]4C[C@H](O)CC[C@]4(C)[C@H]3C[C@H](O)[C@]12C |  |  | 
7.39 | 7.15 | 6.19 | C[C@H](CCC(=O)NCCc1ccc(S(N)(=O)=O)cc1)[C@H]1CC[C@H]2[C@@H]3CC[C@@H]4C[C@H](O)CC[C@]4(C)[C@H]3CC[C@]12C |  |  | 
7.96 | 7.62 | 6.74 | C[C@H](CCC(=O)Nc1ccc(S(N)(=O)=O)cc1F)[C@H]1CC[C@H]2[C@@H]3[C@@H](O)C[C@@H]4C[C@H](O)CC[C@]4(C)[C@H]3CC[C@]12C |  |  | 
6.81 | 6.36 | 5.13 | C[C@H](CCC(=O)Nc1cccc(S(N)(=O)=O)c1)[C@H]1CC[C@H]2[C@@H]3C(=O)C[C@@H]4CC(=O)CC[C@]4(C)[C@H]3CC(=O)[C@]12C |  |  | 
6.80 | 6.32 | 5.15 | C[C@H](CCC(=O)Nc1cccc(S(N)(=O)=O)c1)[C@H]1CC[C@H]2[C@@H]3[C@@H](O)C[C@@H]4C[C@H](O)CC[C@]4(C)[C@H]3CC[C@]12C |  |  | 
